Biological target: fully phosphorylated, active Mouse ERK2 protein (Mus musculus (Mouse), UniProt P63085)
Test: Active ERK2 (aERK) IMAP assay
Format: biochemical
Conditions: IMAP fluorescence polarization; 30 μM ATP; 30 minute pre-incubation
Protocol: 14 μl of kinase buffer (10 mM Tris.HCl pH 7.2, 10 mM MgCl2, 0.01% Tween-20, 1 mM DTT) containing 0.4 ng unphosphorylated Mouse ERK2 protein was added to each well of a black 384-well assay plate. […] DMSO concentration during initial incubation is 6.7%. […] DMSO concentration during ERK activation was 4%. After one hour, reactions were terminated by addition of 60 μl IMAP detections beads in binding buffer (Molecular Devices). Binding was allowed to equilibrate for 30 minutes before reading the plate on an LJL Analyst Fluorescence Polarization plate reader.
Active ERK2 (aERK) Assay:
Activated ERK2 activity was also determined in the IMAP assay format using the procedure outlined above. […] Reactions proceeded for 30 minutes before termination by addition of 60 μl IMAP detection beads in binding buffer. Plates were read as above after 30 minute binding equilibration.

fully phosphorylated, active Mouse ERK2 protein, sequence (P63085 whole entry): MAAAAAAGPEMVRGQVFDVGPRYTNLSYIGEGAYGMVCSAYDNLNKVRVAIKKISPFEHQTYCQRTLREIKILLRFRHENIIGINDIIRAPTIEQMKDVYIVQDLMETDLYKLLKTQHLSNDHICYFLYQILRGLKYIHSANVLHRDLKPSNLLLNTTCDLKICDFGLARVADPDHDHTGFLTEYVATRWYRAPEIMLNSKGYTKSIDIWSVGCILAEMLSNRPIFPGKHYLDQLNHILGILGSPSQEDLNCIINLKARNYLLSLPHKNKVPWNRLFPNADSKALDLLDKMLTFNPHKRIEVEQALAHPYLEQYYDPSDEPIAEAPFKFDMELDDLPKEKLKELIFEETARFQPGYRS

SMILES	IC50
Cc1cc(-c2n[nH]c3ccc(C(=O)N[C@H]4CCC[C@](O)(Cn5ncc6c(F)cccc65)C4)cc23)ccn1 (relative stereo) [compound 103, N-[cis-3-[(4-fluoro-1H-indazol-1-yl)methyl]-3-hydroxycyclohexyl]-3-(2-methyl-4-pyridinyl)-1H-indazole-5-carboxamide]	0.0213 µM
Cc1cc(-c2n[nH]c3ccc(C(=O)N[C@H]4CCC[C@@](O)(Cn5ncc6cccc(F)c65)C4)cc23)ccn1 (relative stereo) [compound 104, N-[trans-3-[(7-fluoro-1H-indazol-1-yl)methyl]-3-hydroxycyclohexyl]-3-(2-methyl-4-pyridinyl)-1H-indazole-5-carboxamide]	0.0743 µM
Cc1cc(-c2n[nH]c3ccc(C(=O)N[C@H]4CCC[C@@](O)(Cn5cc6ccc(C(F)(F)F)cc6n5)C4)cc23)ccn1 (relative stereo) [compound 105, N-[trans-3-hydroxy-3-[[6-(trifluoromethyl)-2H-indazol-2-yl]methyl]cyclohexyl]-3-(2-methyl-4-pyridinyl)-1H-indazole-5-carboxamide]	1 µM
Cc1cc(-c2n[nH]c3ccc(C(=O)N[C@H]4CCC[C@](O)(Cn5ncc6ccc(C(F)(F)F)cc65)C4)cc23)ccn1 (relative stereo) [compound 106, N-[cis-3-hydroxy-3-[[6-(trifluoromethyl)-1H-indazol-1-yl]methyl]cyclohexyl]-3-(2-methyl-4-pyridinyl)-1H-indazole-5-carboxamide]	0.107 µM
Cc1cc(-c2n[nH]c3ccc(C(=O)NC4CCCC(O)(Cc5ccccc5F)C4)cc23)ccn1 (single isomer, unassigned) [compound 1, N-[3-[(2-fluorophenyl)methyl]-3-hydroxycyclo-hexyl]-3-(2-methyl-4-pyridinyl)-1H-indazole-5-carboxamide]	0.589 µM
Cc1cc(-c2n[nH]c3ccc(C(=O)NC4CCCC(O)(Cc5ccccc5F)C4)cc23)ccn1 (single isomer, unassigned) [compound 2, N-[3-[(2-fluorophenyl)methyl]-3-hydroxycyclo-hexyl]-3-(2-methyl-4-pyridinyl)-1H-indazole-5-carboxamide]	0.0208 µM
Cc1cc(-c2n[nH]c3ccc(C(=O)NC4CCCC(O)(Cc5ccccc5F)C4)cc23)ccn1 (single isomer, unassigned) [compound 3, N-[3-[(2-fluorophenyl)methyl]-3-hydroxycyclo-hexyl]-3-(2-methyl-4-pyridinyl)-1H-indazole-5-carboxamide]	0.0076 µM
Cc1cc(-c2n[nH]c3ccc(C(=O)NC4CCCC(O)(Cc5ccccc5F)C4)cc23)ccn1 (single isomer, unassigned) [compound 4, N-[3-[(2-fluorophenyl)methyl]-3-hydroxycyclo-hexyl]-3-(2-methyl-4-pyridinyl)-1H-indazole-5-carboxamide]	0.128 µM
O=C(NC1CCCC(O)(Cc2ccccc2F)C1)c1ccc2[nH]nc(-c3ccc4ncsc4c3)c2c1 (single isomer, unassigned) [compound 10, 3-(6-benzothiazolyl)-N-[3-[(2-fluorophenyl)methyl]-3-hydroxycyclohexyl]-1H-indazole-5-carboxamide]	1 µM
O=C(NC1CCCC(O)(Cc2ccccc2F)C1)c1ccc2[nH]nc(-c3ccc4ncsc4c3)c2c1 (single isomer, unassigned) [compound 11, 3-(6-benzothiazolyl)-N-[3-[(2-fluorophenyl)methyl]-3-hydroxycyclohexyl]-1H-indazole-5-carboxamide]	0.264 µM
Cc1cc(-c2n[nH]c3ccc(C(=O)N[C@@H]4CCCC(F)(Cc5ccccc5F)C4)cc23)ccn1 (single isomer, unassigned; isomer 1) [compound 55]	1 µM
Cc1nc2ccc(-c3n[nH]c4ccc(C(=O)N[C@@H]5CCC[C@](O)(Cc6ccccc6F)C5)cc34)cn2n1 [compound 12, N-[3(S)-[(2-fluorophenyl)methyl]-3-hydroxy-1(R)-cyclohexyl]-3-(2-methyl[1,2,4]triazolo[1,5-a]pyridin-6-yl)-1H-indazole-5-carboxamide]	0.0144 µM
Cc1nc2ccc(-c3n[nH]c4ccc(C(=O)N[C@@H]5CCC[C@](O)(Cc6ccccc6F)C5)cc34)cc2s1 [compound 13, N-[3(S)-[(2-fluorophenyl)methyl]-3-hydroxy-1(R)-cyclohexyl]-3-(2-methyl-6-benzothiazolyl)-1H-indazole-5-carboxamide]	0.0199 µM

Next, values leading:

IC50	SMILES
0.362 µM	Cc1cc(-c2n[nH]c3ccc(C(=O)N[C@H]4CCC[C@](O)(Cn5ncc6ccc(F)cc65)C4)cc23)ccn1 (relative stereo) [compound 107, N-[cis-3-[(6-fluoro-1H-indazol-1-yl)methyl]-3-hydroxycyclohexyl]-3-(2-methyl-4-pyridinyl)-1H-indazole-5-carboxamide]
1 µM	Cc1cc(-c2n[nH]c3ccc(C(=O)NC4CCCC(O)(Cc5c(F)cccc5F)C4)cc23)ccn1 (single isomer, unassigned) [compound 5, N-[3-[(2,6-difluorophenyl)methyl]-3-hydroxycyclohexyl]-3-(2-methyl-4-pyridinyl)-1H-indazole-5-carboxamide]
1 µM	Cc1cc(-c2n[nH]c3ccc(C(=O)NC4CCCC(O)(Cc5c(F)cccc5F)C4)cc23)ccn1 (single isomer, unassigned) [compound 6, N-[3-[(2,6-difluorophenyl)methyl]-3-hydroxycyclohexyl]-3-(2-methyl-4-pyridinyl)-1H-indazole-5-carboxamide]
0.0152 µM	Cc1cc(-c2n[nH]c3ccc(C(=O)NC4CCCC(O)(Cc5c(F)cccc5F)C4)cc23)ccn1 (single isomer, unassigned) [compound 7, N-[3-[(2,6-difluorophenyl)methyl]-3-hydroxycyclohexyl]-3-(2-methyl-4-pyridinyl)-1H-indazole-5-carboxamide]
1 µM	Cc1cc(-c2n[nH]c3ccc(C(=O)NC4CCCC(O)(Cc5c(F)cccc5F)C4)cc23)ccn1 (single isomer, unassigned) [compound 8, N-[3-[(2,6-difluorophenyl)methyl]-3-hydroxycyclohexyl]-3-(2-methyl-4-pyridinyl)-1H-indazole-5-carboxamide]
0.061 µM	Cc1cc(-c2n[nH]c3ccc(C(=O)NC4CCCC(Oc5ccccc5F)C4)cc23)ccn1 (single isomer, unassigned) [compound 27, N-[3-(2-fluorophenoxy)cyclohexyl]-3-(2-methyl-4-pyridinyl)-1H-indazole-5-carboxamidem]
0.113 µM	Cc1cc(-c2n[nH]c3ccc(C(=O)NC4CCCC(Oc5ccccc5F)C4)cc23)ccn1 (single isomer, unassigned) [compound 28, N-[3-(2-fluorophenoxy)cyclohexyl]-3-(2-methyl-4-pyridinyl)-1H-indazole-5-carboxamide]
1 µM	Cc1cc(-c2n[nH]c3ccc(C(=O)NC4CCCC(Oc5ccccc5Cl)C4)cc23)ccn1 (single isomer, unassigned) [compound 29, N-[3-(2-chlorophenoxy)cyclohexyl]-3-(2-methyl-4-pyridinyl)-1H-indazole-5-carboxamide]
0.0386 µM	Cc1cc(-c2n[nH]c3ccc(C(=O)NC4CCCC(Oc5ccccc5Cl)C4)cc23)ccn1 (single isomer, unassigned) [compound 30, N-[3-(2-chlorophenoxy)cyclohexyl]-3-(2-methyl-4-pyridinyl)-1H-indazole-5-carboxamide]
0.198 µM	Cc1cc(-c2n[nH]c3ccc(C(=O)NC4CCCC(Oc5ccccc5Cl)C4)cc23)ccn1 (single isomer, unassigned) [compound 34, N-[3-(2-chlorophenoxy)cyclohexyl]-3-(2-methyl-4-pyridinyl)-1H-indazole-5-carboxamide]
0.192 µM	Cc1cc(-c2n[nH]c3ccc(C(=O)NC4CCCC(Oc5ccccc5Cl)C4)cc23)ccn1 (single isomer, unassigned) [compound 35, N-[3-(2-chlorophenoxy)cyclohexyl]-3-(2-methyl-4-pyridinyl)-1H-indazole-5-carboxamide]
0.128 µM	Cc1cc(-c2n[nH]c3ccc(C(=O)NC4CCCC(Oc5ccc(F)cc5F)C4)cc23)ccn1 (single isomer, unassigned) [compound 37, N-[3-(2,4-difluorophenoxy)cyclohexyl]-3-(2-methyl-4-pyridinyl)-1H-indazole-5-carboxamide]
0.476 µM	Cc1cc(-c2n[nH]c3ccc(C(=O)NC4CCCC(Oc5ccc(F)cc5F)C4)cc23)ccn1 (single isomer, unassigned) [compound 38, N-[3-(2,4-difluorophenoxy)cyclohexyl]-3-(2-methyl-4-pyridinyl)-1H-indazole-5-carboxamide]
0.0134 µM	Cc1cc(-c2n[nH]c3ccc(C(=O)NC4CCCC(CO)(Oc5cccc(F)c5)C4)cc23)ccn1 (single isomer, unassigned) [compound 43, N-[3-(3-fluorophenoxy)-3-(hydroxymethyl)cyclohexyl]-3-(2-methyl-4-pyridinyl)-1H-indazole-5-carboxamide]
0.214 µM	Cc1cc(-c2n[nH]c3ccc(C(=O)NC4CCCC(CO)(Oc5cccc(F)c5)C4)cc23)ccn1 (single isomer, unassigned) [compound 44, N-[3-(3-fluorophenoxy)-3-(hydroxymethyl)cyclohexyl]-3-(2-methyl-4-pyridinyl)-1H-indazole-5-carboxamide]
0.187 µM	Cc1cc(-c2n[nH]c3ccc(C(=O)NC4CCCC(CO)(Oc5cccc(F)c5)C4)cc23)ccn1 (single isomer, unassigned) [compound 45, N-[3-(3-fluorophenoxy)-3-(hydroxymethyl)cyclohexyl]-3-(2-methyl-4-pyridinyl)-1H-indazole-5-carboxamide]
